From US20230072683A1, “PYRIDO-PYRIMIDIN DERIVATIVES AND PHARMACEUTICAL COMPOSITION, FOR USE IN PREVENTING OR TREATING PI3 KINASE RELATED DISEASES, COMPRISING SAME AS ACTIVE INGREDIENT” (BORYUNG PHARMACEUTICAL CO., LTD, priority 2019, published 2023)
Where two headings read alike, the source gives them in different places.

What was measured:
[1] = biological target: PI3K-δ (PI3K(p1108/p857) (h)) (Homo sapiens, UniProt O00329); experiment: Evaluation of inhibitory activity against PI3K-δ (HTRF kinase assay); assay type: biochemical; conditions: for inhibition at 0.01 µM: compound concentration 0.01 μM, read-out: EXP_VALUE(% Inhibition) PI3K-δ 0.01 μM; for inhibition at 0.1 µM: read-out: EXP_VALUE(% Inhibition) PI3K-δ 0.1 μM
PI3K-δ (PI3K(p1108/p857) (h)), sequence (O00329 whole entry, the tested form may be a part): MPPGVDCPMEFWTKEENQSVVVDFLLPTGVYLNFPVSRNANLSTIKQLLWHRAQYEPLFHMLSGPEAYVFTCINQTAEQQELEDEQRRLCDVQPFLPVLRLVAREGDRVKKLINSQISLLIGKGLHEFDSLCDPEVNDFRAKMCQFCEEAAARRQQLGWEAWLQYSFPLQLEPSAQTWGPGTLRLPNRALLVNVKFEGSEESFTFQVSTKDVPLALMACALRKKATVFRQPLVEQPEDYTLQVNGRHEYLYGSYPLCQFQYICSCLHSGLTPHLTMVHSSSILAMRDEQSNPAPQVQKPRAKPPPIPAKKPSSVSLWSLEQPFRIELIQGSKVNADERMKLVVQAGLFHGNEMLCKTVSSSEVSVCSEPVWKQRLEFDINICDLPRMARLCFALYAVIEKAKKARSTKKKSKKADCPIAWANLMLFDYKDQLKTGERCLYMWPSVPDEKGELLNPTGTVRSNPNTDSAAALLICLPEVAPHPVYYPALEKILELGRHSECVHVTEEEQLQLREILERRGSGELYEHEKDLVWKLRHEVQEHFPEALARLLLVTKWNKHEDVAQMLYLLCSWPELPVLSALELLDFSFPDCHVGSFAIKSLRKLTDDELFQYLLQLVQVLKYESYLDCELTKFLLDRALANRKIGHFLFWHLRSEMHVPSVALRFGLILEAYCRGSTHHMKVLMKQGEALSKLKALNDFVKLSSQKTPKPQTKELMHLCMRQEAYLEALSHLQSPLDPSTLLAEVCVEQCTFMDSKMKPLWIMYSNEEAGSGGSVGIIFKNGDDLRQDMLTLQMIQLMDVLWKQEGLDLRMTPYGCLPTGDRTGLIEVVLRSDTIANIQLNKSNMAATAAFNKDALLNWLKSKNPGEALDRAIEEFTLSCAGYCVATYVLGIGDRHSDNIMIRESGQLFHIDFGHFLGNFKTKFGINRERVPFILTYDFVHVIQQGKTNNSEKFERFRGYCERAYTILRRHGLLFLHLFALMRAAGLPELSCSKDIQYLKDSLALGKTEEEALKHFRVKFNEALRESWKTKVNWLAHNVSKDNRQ
PI3K-δ (PI3K(p1108/p857) (h)), sequence (P27986 whole entry partner, the tested form may be a part): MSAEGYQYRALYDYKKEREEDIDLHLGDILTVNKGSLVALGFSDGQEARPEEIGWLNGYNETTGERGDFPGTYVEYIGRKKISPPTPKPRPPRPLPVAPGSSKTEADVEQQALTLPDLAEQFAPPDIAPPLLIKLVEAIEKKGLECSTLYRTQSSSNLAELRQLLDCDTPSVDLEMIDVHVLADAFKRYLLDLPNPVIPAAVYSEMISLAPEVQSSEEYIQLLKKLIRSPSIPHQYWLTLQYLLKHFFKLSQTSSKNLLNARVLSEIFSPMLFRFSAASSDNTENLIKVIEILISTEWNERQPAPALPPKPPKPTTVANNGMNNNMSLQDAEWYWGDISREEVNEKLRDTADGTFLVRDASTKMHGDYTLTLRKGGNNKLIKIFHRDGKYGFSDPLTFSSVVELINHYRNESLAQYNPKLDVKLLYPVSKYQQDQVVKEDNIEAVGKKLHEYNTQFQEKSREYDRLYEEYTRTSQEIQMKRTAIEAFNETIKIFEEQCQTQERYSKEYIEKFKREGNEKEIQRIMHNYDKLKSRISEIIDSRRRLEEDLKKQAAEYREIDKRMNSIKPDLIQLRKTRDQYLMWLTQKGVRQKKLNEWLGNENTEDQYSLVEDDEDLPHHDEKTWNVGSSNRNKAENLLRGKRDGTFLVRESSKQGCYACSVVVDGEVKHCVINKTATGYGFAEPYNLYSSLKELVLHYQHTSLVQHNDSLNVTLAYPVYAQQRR
Summary of the method: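 HTRF read-out (665/620 nm ratio ×10000) used Eu-labelled anti-GST, GST-tagged GRP1 PH domain and streptavidin-allophycocyanin after EDTA/PIP3 stop.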

DNA-PK(h) = DNA-PK(h) (Homo sapiens, UniProt P78527); experiment: Evaluation of inhibitory activity against DNA-PK (HTRF kinase assay, GST-cMyc-p53 substrate); assay type: biochemical; conditions: for inhibition at 0.01 µM: compound concentration 0.01 μM, read-out: EXP_VALUE(% Inhibition) DNA-PK(h) 0.01 μM; for inhibition at 0.1 µM: read-out: EXP_VALUE(% Inhibition) DNA-PK(h) 0.1 μM
Summary of the method: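 p53 Ser15 phosphorylation by human DNA-PK was measured by time-resolved FRET ratio (665/620 nm ×10000) using Eu-labelled anti-phospho-Ser15 and d2 anti-GST antibodies. Substrate GST-cMyc-p53 at 50 μM; Mg/ATP-initiated, 30 min at room temperature, EDTA stop.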

Compound	inhibition at 0.01 µM [1] [%]	inhibition at 0.01 µM (DNA-PK(h)) [%]	inhibition at 0.1 µM ([1]; compound concentration 0.1 μM) [%]	inhibition at 0.1 µM (DNA-PK(h); compound concentration 0.1 μM) [%]	inhibition at 0.1 µM ([1]; compound at 0.1 μM) [%]	inhibition at 0.1 µM (DNA-PK(h); compound at 0.1 μM) [%]
COc1cc(-c2cccc3c(Cl)c([C@H](C)Nc4ncnc5[nH]ccc(=O)c45)n(-c4ccccc4)c(=O)c23)cc(OC)c1C [Example 177, (S)-4-((1-(4-chloro-8-(3,5-dimethoxy-4-methylphenyl)-1-oxo-2-phenyl-1,2-dihydroisoquinolin-3-yl)ethyl)amino)pyrido[2,3-d]pyrimidin-5(8H)-one]	28	54	–	–	–	–
COc1cc(-c2cccc3c(Cl)c([C@H](C)Nc4ncnc5c4c(=O)ccn5-c4ccnc(OC)c4)n(-c4ccccc4)c(=O)c23)ccn1 [Example 149, (S)-4-((1-(4-chloro-8-(2-methoxypyridin-4-yl)-1-oxo-2-phenyl-1,2-dihydroisoquinolin-3-yl)ethyl)amino)-8-(2-methoxypyridin-4-yl)pyrido[2,3-d]pyrimidin-5(8H)-one]	2	7	–	–	–	–
COc1ccc(-c2cccc3c(Cl)c([C@H](C)Nc4ncnc5[nH]ccc(=O)c45)n(-c4ccccc4)c(=O)c23)cn1 [Example 133, (S)-4-((1-(4-chloro-8-(6-methoxypyridin-3-yl)-1-oxo-2-phenyl-1,2-dihydroisoquinolin-3-yl)ethyl)amino)pyrido[2,3-d]pyrimidin-5(8H)-one]	78	79	88	99	–	–
C[C@H](Nc1ncnc2[nH]ccc(=O)c12)c1c(Cl)c2cccc(-c3ccc(C4CC4)cc3)c2c(=O)n1-c1ccccc1 [Example 141, (S)-4-((1-(4-chloro-8-(4-cyclopropylphenyl)-1-oxo-2-phenyl-1,2-dihydroisoquinolin-3-yl)ethyl)amino)pyrido[2,3-d]pyrimidin-5(8H)-one]	39	31	79	74	–	–
C[C@H](Nc1ncnc2[nH]ccc(=O)c12)c1c(Cl)c2cccc(N3CCC(NC(=O)OC(C)(C)C)CC3)c2c(=O)n1-c1ccccc1 [Example 77, tert-butyl(S)-(1-(4-chloro-1-oxo-3-(1-((5-oxo-5,8-dihydropyrido[2,3-d]pyrimidin-4-yl)amino)ethyl)-2-phenyl-1,2-dihydroisoquinolin-8-yl)piperidin-4-yl) carbamate]	45	9	78	64	–	–
C[C@H](Nc1ncnc2[nH]ccc(=O)c12)c1c(Cl)c2cccc(-c3cnc(OCC(F)(F)F)nc3)c2c(=O)n1-c1ccccc1 [Example 184, (S)-4-((1-(4-chloro-1-oxo-2-phenyl-8-(2-(2,2,2-trifluoroethoxy)pyrimidin-5-yl)-1,2-dihydroisoquinolin-3-yl)ethyl)amino)pyrido[2,3-d]pyrimidin-5(8H)-one]	78	38	–	–	–	–
COc1cc(-c2cccc3c(Cl)c([C@H](C)Nc4ncnc5[nH]ccc(=O)c45)n(-c4ccccc4)c(=O)c23)cnc1OC [Example 170, (S)-4-((1-(4-chloro-8-(5,6-dimethoxypyridin-3-yl)-1-oxo-2-phenyl-1,2-dihydroisoquinolin-3-yl)ethyl)amino)pyrido[2,3-d]pyrimidin-5(8H)-one]	35	66	–	–	–	–
C[C@H](Nc1ncnc2[nH]ccc(=O)c12)c1c(Cl)c2cccc(-c3ccc(OCC4CC4)nc3)c2c(=O)n1-c1ccccc1 [Example 163, (S)-4-((1-(4-chloro-8-(6-(cyclopropylmethoxy)pyridin-3-yl)-1-oxo-2-phenyl-1,2-dihydroisoquinolin-3-yl)ethyl)amino)pyrido[2,3-d]pyrimidin-5(8H)-one]	70	45	–	–	–	–
CCN(CC)c1ncc(-c2cccc3c(Cl)c([C@H](C)Nc4ncnc5[nH]ccc(=O)c45)n(-c4ccccc4)c(=O)c23)cn1 [Example 217, (S)-4-((1-(4-chloro-8-(2-(diethylamino)pyrimidin-5-yl)-1-oxo-2-phenyl-1,2-dihydroisoquinolin-3-yl)ethyl)amino)pyrido[2,3-d]pyrimidin-5(8H)-one]	71	66	–	–	–	–
C[C@H](Nc1ncnc2[nH]ccc(=O)c12)c1c(Cl)c2cccc(N3CCN(C4CCN(C)CC4)CC3)c2c(=O)n1-c1ccccc1 [Example 11, (S)-4-((1-(4-chloro-8-(4-(1-methylpiperidin-4-yl)piperazin-1-yl)-1-oxo-2-phenyl-1,2-dihydroisoquinolin-3-yl)ethyl)amino)pyrido[2,3-d]pyrimidin-5(8H)-one]	21	18	61	53	–	–
C[C@H](Nc1ncnc2[nH]ccc(=O)c12)c1c(Cl)c2cccc(-c3ncc[nH]3)c2c(=O)n1-c1ccccc1 [Example 287, (S)-4-((1-(4-chloro-8-(1H-imidazol-2-yl)-1-oxo-2-phenyl-1,2-dihydroisoquinolin-3-yl)ethyl)amino)pyrido[2,3-d]pyrimidin-5(8H)-one]	38	28	–	–	–	–
C[C@H](Nc1ncnc2[nH]ccc(=O)c12)c1c(Cl)c2cccc(C#Cc3ccc(-c4ccccc4)cc3)c2c(=O)n1-c1ccccc1 [Example 310, (S)-4-((1-(8-([1,1′-biphenyl]-4-ylethynyl)-4-chloro-1-oxo-2-phenyl-1,2-dihydroisoquinolin-3-yl)ethyl)amino)pyrido[2,3-d]pyrimidin-5(8H)-one]	31.5	-2.5	20.4	3.2	–	–
C[C@H](Nc1ncnc2[nH]ccc(=O)c12)c1c(Cl)c2cccc(C#Cc3ccccc3)c2c(=O)n1-c1ccccc1 [Example 305, (S)-4-((1-(4-chloro-1-oxo-2-phenyl-8-(phenylethynyl)-1,2-dihydroisoquinolin-3-yl)ethyl)amino)pyrido[2,3-d]pyrimidin-5(8H)-one]	83	20	99	62	–	–

Next, values leading:

inhibition at 0.01 µM [1] [%]	inhibition at 0.01 µM (DNA-PK(h)) [%]	inhibition at 0.1 µM ([1]; compound concentration 0.1 μM) [%]	inhibition at 0.1 µM (DNA-PK(h); compound concentration 0.1 μM) [%]	inhibition at 0.1 µM ([1]; compound at 0.1 μM) [%]	inhibition at 0.1 µM (DNA-PK(h); compound at 0.1 μM) [%]	Compound
56	48	–	–	–	–	C[C@H](Nc1ncnc2[nH]ccc(=O)c12)c1c(Cl)c2cccc([C@@H](C)O)c2c(=O)n1-c1ccccc1 [Example 361, 4-(((S)-1-(4-chloro-8-((R)-1-hydroxyethyl)-1-oxo-2-phenyl-1,2-dihydroisoquinolin-3-yl)ethyl)amino)pyrido[2,3-d]pyrimidin-5(8H)-one]
72	50	94	85	–	–	CC(Oc1cccc2c(Cl)c([C@H](C)Nc3ncnc4[nH]ccc(=O)c34)n(-c3ccccc3)c(=O)c12)c1ccncc1 (stereo partly drawn) [Example 368, 4-(((1S)-1-(4-chloro-1-oxo-2-phenyl-8-(1-(pyridin-4-yl)ethoxy)-1,2-dihydroisoquinolin-3-yl)ethyl)amino)pyrido[2,3-d]pyrimidin-5(8H)-one]
78	47	–	–	–	–	C[C@H](Nc1ncnc2[nH]ccc(=O)c12)c1c(Cl)c2cccc(CO)c2c(=O)n1-c1ccccc1 [Example 355, (S)-4-((1-(4-chloro-8-(hydroxymethyl)-1-oxo-2-phenyl-1,2-dihydroisoquinolin-3-yl)ethyl)amino)pyrido[2,3-d]pyrimidin-5(8H)-one]
95	63	106	94	–	–	CCc1cccc2c(Cl)c([C@H](C)Nc3ncnc4[nH]ccc(=O)c34)n(-c3ccccc3)c(=O)c12 [Example 354, (S)-4-((1-(4-chloro-8-ethyl-1-oxo-2-phenyl-1,2-dihydroisoquinolin-3-yl)ethyl)amino)pyrido[2,3-d]pyrimidin-5(8H)-one]
20.2	47.2	55	84.6	–	–	C[C@H](Nc1ncnc2[nH]ccc(=O)c12)c1c(Cl)c2cccc(C#Cc3cncs3)c2c(=O)n1-c1ccccc1 [Example 313, (S)-4-((1-(4-chloro-1-oxo-2-phenyl-8-(thiazol-5-ylethynyl)-1,2-dihydroisoquinolin-3-yl)ethyl)amino)pyrido[2,3-d]pyrimidin-5(8H)-one]
–	–	–	–	20	22	C[C@H](Nc1ncnc2[nH]ccc(=O)c12)c1c(Cl)c2cccc(Sc3ncccn3)c2c(=O)n1-c1ccccc1 [Example 423, (S)-4-((1-(4-chloro-1-oxo-2-phenyl-8-(pyrimidin-2-ylthio)-1,2-dihydroisoquinolin-3-yl)ethyl)amino)pyrido[2,3-d]pyrimidin-5(8H)-one]
3	-2	19	35	–	–	C[C@H](Nc1ncnc2[nH]ccc(=O)c12)c1c(Cl)c2cccc(N3CCC[C@H]3CN3CCCC3)c2c(=O)n1-c1ccccc1 [Example 338, 4-(((S)-1-(4-chloro-1-oxo-2-phenyl-8-((S)-2-(pyrrolidin-1-ylmethyl)pyrrolidin-1-yl)-1,2-dihydroisoquinolin-3-yl)ethyl)amino)pyrido[2,3-d]pyrimidin-5(8H)-one]
–	–	–	–	61	18	C[C@H](Nc1ncnc2[nH]ccc(=O)c12)c1c(Cl)c2cccc(-c3cnc(-c4ccco4)nc3)c2c(=O)n1-c1ccccc1 [Example 378, (S)-4-((1-(4-chloro-8-(2-(furan-2-yl)pyrimidin-5-yl)-1-oxo-2-phenyl-1,2-dihydroisoquinolin-3-yl)ethyl)amino)pyrido[2,3-d]pyrimidin-5(8H)-one]
